# Measurements from patent publication EP0407651A2, “Use of 1,3-diisobutyl-8-methylxanthine as a bronchodilator and antiallergy agent” (J. URIACH & CIA. S.A., priority 1989, dated 1991).
# Legend:
# [1] = tested on: Isolated guinea pig trachea; experiment: Isolated guinea pig trachea relaxation (spontaneous tonus, organ bath); format: cell-based; conditions: Cavia porcellus; 50% relaxation of spontaneous tonus; relaxation by 1 mcM isoprenaline = 100%; read-out: Guinea pig trachea EC₅₀
# Procedure: This in vitro test was carried out according to the method of Emmerson and Mackay (J. Pharm. Pharmacol. 1979, 31, 798). The trachea was excised from guinea pigs, placed in Krebs Henseleit's solution at 37°C and gassed with 95% O₂ and 5% CO₂. The trachea strip was mounted in an organ bath and attached to a tension transducer preloaded with […]. Test compounds were cumulatively added to the organ bath and concentrations causing 50% relaxation of the spontaneous tonus of the tracheal tissue (EC₅₀) were calculated (Table 1). The relaxation induced by 1 mcM isoprenaline was taken as 100%.
# [2] = tested on: Histamine-induced bronchospasm in anaesthetized guinea pigs; experiment: Histamine-induced bronchospasm in anaesthetized guinea pigs (Konzett and Rössler); format: in vivo; conditions: histamine 10 mcg/Kg i.v., test compound i.p., maximum inhibitory effect at 10, 30, 60 min
# Procedure: This test was performed in anaesthetized animals according to the method of Konzett and Rössler (Arch. Exp. Pathol.Pharmacol. 1940, 195, 71). The activity was determined by calculating the dose of the active compound required to produce 50% inhibition of the bronchospasm (ID₅₀) (Table 1). Histamine was given intravenously at 10 mcg/Kg, before and 10, 30 and 60 minutes after intraperitoneal administration of test compounds. Maximum inhibitory effects were taken for calculation of ID₅₀ values.
# [3] = tested on: Histamine aerosol-induced bronchospasm; experiment: Histamine aerosol-induced bronchospasm in conscious guinea pigs (protection from death); format: in vivo; conditions: for Histamine bronchospasm Hist. aerosol PC₅₀ (inhal) / Histamine bronchospasm Hist. aerosol PD₅₀ (oral): conscious guinea pigs; for Histamine bronchospasm Hist. aerosol PC₅₀ (inhal): ethanolic solution nebulized 1 mL/min for 2 min, histamine challenge 3 min later, concentration protecting 50% from lethality; for Histamine bronchospasm Hist. aerosol PD₅₀ (oral): one hour before histamine aerosol (0.2%), dose protecting 50% of animals from death; for Protection from death % / Protection from death n/N: formulation B by inhalation; for Protection from death n/N: survivors versus total number of animals
# Procedure: This test is based on the methods of Van P+roosdif-Hartzema (Inter. Ppharmacodynamic 1958, 115, 322) and Loew (J. Pharmac.Exp.Ther. 1945, 83, 120) with slight modifications. Thus, conscious guinea pigs were subjected to inhalation of histamine (0.2% aqueous solution) nebulized by an ultrasonic device (DeVilvis™, Ultra-Neb 99) during 30 seconds in a cylindric plastic chamber of 15 liters of volume, at a rate of 1 mL/min. Test compounds were given orally, one hour before the challenge of histamine, and the dose needed to protect from death 50% of the animals was determined (PD₅₀) (Table 1).
# Using the same model, test compounds were also given by inhalation. They were dissolved in ethanol at different concentrations (0.45 mM to 28mM) and aerosolized by the ultrasonic nebulizer mentioned above at a rate of 1 mL/min, during 2 minutes. Three minutes later, the animals were subjected to the challenge of histamine and PC₅₀ values were determined (Table 1). Controls were subjected to inhalation of the vehicle (ethanol). PC₅₀ value is defined as the concentration of test compound in the ethanolic solution that protects 50% of animals from lethality when nebulized as indicated above.
# Finally, studies have been made subjecting the animals to inhalation of one or more puffs of 5 mg/mL of 1,3-diisobutyl-8-methylxanthine (UR-6032) solution formulation B (see Example 1). Animals were forced to inhale UR-6032 for 5 minutes into the cylindric plastic chamber before the challenge with ultrasonic nebulized histamine (see above) and protection from death with respect to controls was determined (Table 2).
# [4] = tested on: rat peritoneal mast cell preparations; experiment: Histamine release induced by compound 48/80 in rat mast cell preparations; format: cell-based; conditions: 20 min, 1 mM test compound, compound 48/80 10⁻⁶ M, 37°C, read-out: Histamine release % inhib. at 1 mM
# Procedure: Anaesthetized rats were bled by cardiac puncture and then 10 mL of Tyrode's-gel solution (0.1% gelatine in Tyrode's buffer, pH 7.2) containing 50 mcg heparin was injected into the peritoneal cavity. Alter a gentle massage of the abdomen, the peritoneal cell suspension was harvested. Mast cells were suspended in Tyrode's solution (10⁶ cells/mL). Aliquots of 0.2 mL of the mast cell suspension were incubated at 37°C for 20 minutes with 10 mcL of compound 48/80 (10⁻⁶ M final concentration), a potent histamine release inducer. The reaction was stopped by introducing the tubes in a ice-ethanol bath. The cells were sedi-mented by centrifugation and the histamine in the supernatant was determined by the fluorimetric method of May (J. Allergy, 1970, 46, 12). The sedimented pellets were treated with 0.1 N HCl at 100°C to liberate the non-released histamine and to determine it by the same method of May. Test compounds were added to the incubation medium dissolved in Tyrode's buffer at different concentrations (final volume: 1 mL). Control samples contained the same volume of Tyrode's buffer. The histamine release in the control samples was taken as 100%, and the percentage of the histamine release inhibition of test samples was calculated with respect to controls. (Table 3).
# [5] = tested on: Passive cutaneous anaphylaxis reaction (PCA); experiment: Passive cutaneous anaphylaxis reaction (PCA) in the rat; format: in vivo; conditions: 30 minutes before egg albumin and Evans' blue challenge
# Procedure: The animals were passively sensitized by intradermal injection of 0.1 mL of five-fold diluted rat reagenic antiserum. Injections were made at 4 locations on the shaved back skin and 48 h later the test drug was administered intraperitoneally. Thirty minutes later, the animals were challenged by intravenous injection of egg albumin and Evans' blue dye. The dermal reaction was measured colorimetrically by the method of Harata (J.Pharm.Pharmac., 1971, 23, 218) as the extent of the blueing reaction at the sensitized intradermal injection site, and the percent inhibition values with respect to controls were calculated (Table 3).
# [6] = tested on: Egg albumin-induced bronchospasm in sensitized guinea pigs; experiment: Egg albumin-induced bronchospasm in sensitized guinea pigs (Konzett and Rössler); format: in vivo; conditions: egg albumin 0.06% w/v, 1 mL/Kg i.v., one minute after test compound
# Procedure: The experimental procedure of Konzett and Rössler was followed (Arch. Exp. Pathol.Pharmacol. 1940, 195, 71). A single intravenous injection of 1 mL/Kg of egg albumin (0.06%, w/v) was given to sensitized animals one minute after intravenous administration of UR-6032 at different concentrations.
# [7] = Acute oral toxicity in rats; format: in vivo; conditions: both sexes rats
Structure (SMILES),EC50 [1] [nM],Histamine bronchospasm Hist. i.v. ID₅₀ [2],Histamine bronchospasm Hist. aerosol PC₅₀ (inhal) [3],inhibition at 1000 µM [4] [%],"PCA % inhibition at 2.5 mg/Kg,i.p. [5] [%]",Histamine bronchospasm Hist. aerosol PD₅₀ (oral) [3] [mg/kg],Protection from death % ([3]; 1 puff) [%],Protection from death n/N ([3]; 1 puff),Protection from death % ([3]; 2 puffs) [%],Protection from death n/N ([3]; 2 puffs),Protection from death % ([3]; 3 puffs) [%],Protection from death n/N ([3]; 3 puffs),active doses given by inhalation ([3]; inhalation) [mg/animal],Egg albumin bronchospasm ID₅₀ [6],acute oral toxicity [7] [mg/kg]
"CC(C)Cn1c(=O)n(C)c(=O)c2[nH]cnc21 [IBMX, 1-methyl-3-isobutylxanthine]",1100,"2.50 mg/Kg,i.p.",^b 15-20 mM,37,86,–,–,–,–,–,–,–,–,–,–
"Cn1c(=O)c2[nH]cnc2n(C)c1=O [Theophylline, 1,3-dimethylxanthine]",31000,"4.90 mg/Kg,i.p.",25 mM,25,8,> 100,–,–,–,–,–,–,–,–,–
"Cc1nc2c([nH]1)c(=O)n(CC(C)C)c(=O)n2CC(C)C [UR-6032, 1,3-diisobutyl-8-methylxanthine]",100,"0.36 mg/Kg,i.p.",0.5 mM,56,39,1,80,4/5,100,3/3,100,3/3,< 0.5,"0.5-1 mg/Kg,i.p.",50
